Source: patent publication US20060069132A1, “Azolecarboxamide herbicides” (priority 2004, published 2006)

Tests used:
[1] = tested on: barnyardgrass; assay: Test C flooded paddy test; assay type: in vivo, Echinochloa crus-galli
Outline: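 Greenhouse test with a 12–14 day hold after application and visual comparison with controls. Emerged plants were 1- to 4-leaf stage (2–18 cm) when sprayed postemergence, and the paddy barnyardgrass was at 2 leaves under flooded conditions. 100 = complete control.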

[2] = tested on: large crabgrass; assay: Test B pre-/postemergence herbicide test; assay type: in vivo, Digitaria sanguinalis; conditions: for Crabgrass, Large plant response rating: postemergence
Outline: (§1)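 Formulation: non-phytotoxic solvent mix with surfactant. Timing: preemergence on seed and postemergence on 2–18 cm plants, applied concurrently. Readout after 13–15 d greenhouse: visual 0–100 control rating against controls.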

[3] = tested on: giant foxtail; assay: Test B pre-/postemergence herbicide test; assay type: in vivo, Setaria faberi; conditions: for Foxtail, Giant plant response rating: postemergence
Outline: as §1

[4] = tested on: wild oat; assay: Test B postemergence herbicide test; assay type: in vivo, Avena fatua; conditions: postemergence
Outline: (§2)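 Formulated test chemicals went onto postemergence plants measuring 2 to 18 cm, at one to four leaves. For the paddy assay, species had reached two leaves. Scoring took place 13–15 days later by eye, relative to untreated plants, using 0 for no effect up to 100 for full control.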

[5] = tested on: cocklebur; assay: Test B pre-/postemergence herbicide test; assay type: in vivo, Xanthium strumarium; conditions: for Cocklebur plant response rating: postemergence, scale 0 (no effect) to 100 (complete control)
Outline: (§3)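 Visual rating, 0 (no effect) to 100 (complete control), versus untreated controls after 13–15 d in greenhouse. Pre- and postemergence applications (postemergence plants 2–18 cm, 1–4 leaves); flooded paddy arm at 2-leaf stage. Compounds in non-phytotoxic solvent plus surfactant.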

[6] = tested on: blackgrass; assay: Test B postemergence herbicide test; assay type: in vivo, Alopecurus myosuroides; conditions: postemergence, visual rating, scale 0 (no effect) to 100 (complete control)
Outline: (§4)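 Visual ratings, 0 (no effect) to 100 (complete control), made versus controls after 13–15 d greenhouse. Paddy plants treated at 2-leaf stage; postemergence plants at 1- to 4-leaf stage, 2–18 cm tall.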

[7] = tested on: smallflower umbrella sedge; assay: Test C flooded paddy test; assay type: in vivo, Cyperus difformis
[8] = tested on: rice; assay: Test B pre-/postemergence herbicide test; assay type: in vivo, Oryza sativa; conditions: 0 = no effect, 100 = complete control, preemergence
Outline: as §1

[9] = tested on: corn; assay: Test B pre-/postemergence herbicide test; assay type: in vivo, Zea mays; conditions: for Corn plant response rating: postemergence
Outline: as §1

[10] = tested on: Surinam grass; assay: Test B pre-/postemergence herbicide test; assay type: in vivo, Urochloa decumbens; conditions: for Surinam Grass plant response rating: postemergence
Outline: as §1

[11] = tested on: pigweed; assay: Test B pre-/postemergence herbicide test; assay type: in vivo, Amaranthus retroflexus; conditions: for Pigweed plant response rating: postemergence
Outline: as §1

[12] = tested on: barnyardgrass; assay: Test B flooded paddy test; assay type: in vivo, Echinochloa crus-galli; conditions: 1000 g ai/ha, scale 0 to 100 (0 no effect, 100 complete control)
Outline: as §4

[13] = tested on: velvetleaf; assay: Test B pre-/postemergence herbicide test; assay type: in vivo, Abutilon theophrasti; conditions: for Velvetleaf plant response rating: postemergence
Outline: as §1

[14] = tested on: small flower umbrella sedge; assay: Test B flooded paddy test; assay type: in vivo, Cyperus difformis; conditions: 1000 g ai/ha, scale 0 to 100 (0 no effect, 100 complete control)
Outline: as §4

[15] = tested on: lambsquarters; assay: Test B pre-/postemergence herbicide test; assay type: in vivo, Chenopodium album; conditions: for Lambsquarters plant response rating: postemergence
Outline: as §1

[16] = tested on: ducksalad; assay: Test C flooded paddy test; assay type: in vivo, Heteranthera limosa
[17] = tested on: rice; assay: Test B flooded paddy test; assay type: in vivo, Oryza sativa; conditions: 1000 g ai/ha, scale 0 to 100 (0 no effect, 100 complete control)
Outline: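 Scale 0–100: zero equals no visible effect, 100 complete control, judged by eye relative to controls. Timing: 13 to 15 days in greenhouse post-treatment. Growth stage at spraying: two leaves (paddy) or one to four leaves, 2–18 cm (postemergence).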

[18] = tested on: morningglory; assay: Test B pre-/postemergence herbicide test; assay type: in vivo, Ipomoea coccinea; conditions: for Morningglory plant response rating: postemergence
Outline: as §3

[19] = tested on: barnyardgrass; assay: Test B pre-/postemergence herbicide test; assay type: in vivo, Echinochloa crus-galli; conditions: for Barnyardgrass plant response rating: postemergence, scale 0 (no effect) to 100 (complete control)
Outline: as §3

[20] = tested on: rice; assay: Test C flooded paddy test; assay type: in vivo, Oryza sativa
Outline: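 Postemergence sprays applied to plants 2 to 18 cm tall (1- to 4-leaf stage); paddy species grown to 2-leaf stage under flooding. After 12 to 14 days in greenhouse, visual rating versus untreated controls on 0–100 scale (0 no effect, 100 complete control).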

[21] = tested on: ducksalad; assay: Test B flooded paddy test; assay type: in vivo, Heteranthera limosa; conditions: 1000 g ai/ha, scale 0 to 100 (0 no effect, 100 complete control)
Outline: as §4

[22] = tested on: wheat; assay: Test B postemergence herbicide test; assay type: in vivo, Triticum aestivum; design: key to Wheat plant response rating: 0 = no effect, 100 = complete control; conditions: postemergence
Outline: as §2

[23] = 125 g ai/ha, scale 0 to 100 (0 no effect, 100 complete control)
[24] = 250 g ai/ha, scale of 0 to 100, 0 is no effect, 100 is complete control
[25] = 500 g ai/ha, visual rating after 12 to 14 days, scale 0 to 100 (0 no effect, 100 complete control)
[26] = 125 g ai/ha, 0 = no effect, 100 = complete control, preemergence
[27] = 500 g ai/ha, visual rating, 0 = no effect, 100 = complete control, preemergence
[28] = 125 g ai/ha, visual rating, scale 0 (no effect) to 100 (complete control)
[29] = 500 g ai/ha, scale 0 to 100, 0 is no effect, 100 is complete control

With `CCNC(=O)c1cncc(NC(=O)c2cc(C(C)(C)C)nn2CC)c1` [Compound 259] the “Barnyardgrass plant response rating” value ([1]; 62 g ai/ha, scale 0 to 100 (0 no effect, 100 complete control)) was 0, the “Barnyardgrass plant response rating” value [1, 23] was 0 and the “Barnyardgrass plant response rating” value [1, 24] was 0. For the same compound, the “Plant response rating, Barnyardgrass” value [1, 25] was 0, the “Crabgrass, Large plant response rating (0 to 100 scale)” value [2, 26] was 0 and the “Plant response rating, Crabgrass, Large” value [2, 27] was 50. The “Crabgrass, Large plant response rating” value [2, 28] was 0, the “Crabgrass, Large plant response rating” value [2, 29] was 20 and the “Foxtail, Giant plant response rating (0 to 100 scale)” value [3, 26] was 0. The “Plant response rating, Foxtail, Giant” value [3, 27] was 70, the “Foxtail, Giant plant response rating” value [3, 28] was 0 and the “Foxtail, Giant plant response rating” value [3, 29] was 0. The “Oat, Wild plant response rating” value [4, 28] was 10, the “Oat, Wild plant response rating” value [4, 29] was 20 and the “Cocklebur plant response rating (0 to 100 scale)” value [5, 26] was 0. For the same compound, the “Plant response rating, Cocklebur” value [5, 27] was 0, the “Cocklebur plant response rating” value ([5]; 125 g ai/ha, visual rating) was 0 and the “Cocklebur plant response rating” value ([5]; 500 g ai/ha, visual rating) was 20. For the same compound, the “Blackgrass plant response rating” value ([6]; 125 g ai/ha) was 10, the “Blackgrass plant response rating” value ([6]; 500 g ai/ha) was 20 and the “Sedge, Umbrella plant response rating” value ([7]; 62 g ai/ha, scale 0 to 100) was 0. For the same compound, the “Sedge, Umbrella plant response rating” value [7, 23] was 35, the “Sedge, Umbrella plant response rating” value [7, 24] was 55 and the “Plant response rating, Sedge, Umbrella” value [7, 25] was 70. For the same compound, the “Rice plant response rating (0 to 100 scale)” value ([8]; 125 g ai/ha) was 0, the “Plant response rating, Rice” value ([8]; 500 g ai/ha, visual rating) was 0 and the “Corn plant response rating (0 to 100 scale)” value [9, 26] was 0. For the same compound, the “Plant response rating, Corn” value [9, 27] was 0, the “Corn plant response rating” value [9, 28] was 10 and the “Corn plant response rating” value [9, 29] was 20. For the same compound, the “Surinam Grass plant response rating (0 to 100 scale)” value [10, 26] was 0, the “Plant response rating, Surinam Grass” value [10, 27] was 30 and the “Surinam Grass plant response rating” value [10, 28] was 10. The “Surinam Grass plant response rating” value [10, 29] was 20, the “Pigweed plant response rating (0 to 100 scale)” value [11, 26] was 0 and the “Plant response rating, Pigweed” value [11, 27] was 100. For the same compound, the “Pigweed plant response rating” value [11, 28] was 30, the “Pigweed plant response rating” value [11, 29] was 90 and the “Barnyardgrass plant response rating” value [12] was 30. The “Velvetleaf plant response rating (0 to 100 scale)” value [13, 26] was 0, the “Plant response rating, Velvetleaf” value [13, 27] was 0 and the “Velvetleaf plant response rating” value [13, 28] was 0. For the same compound, the “Velvetleaf plant response rating” value [13, 29] was 0, the “Sedge, Umbrella plant response rating” value [14] was 70 and the “Lambsquarters plant response rating (0 to 100 scale)” value [15, 26] was 0. The “Lambsquarters plant response rating” value [15, 28] was 10, the “Lambsquarters plant response rating” value [15, 29] was 30 and the “Ducksalad plant response rating” value ([16]; 62 g ai/ha, scale 0 to 100) was 0. For the same compound, the “Ducksalad plant response rating” value [16, 23] was 60, the “Ducksalad plant response rating” value [16, 24] was 65 and the “Plant response rating, Ducksalad” value [16, 25] was 75. For the same compound, the “Rice plant response rating” value [17] was 70, the “Morningglory plant response rating (0 to 100 scale)” value [18, 26] was 0 and the “Plant response rating, Morningglory” value [18, 27] was 90. The “Morningglory plant response rating” value [18, 28] was 0, the “Morningglory plant response rating” value [18, 29] was 0 and the “Barnyardgrass plant response rating (0 to 100 scale)” value [19, 26] was 0. For the same compound, the “Plant response rating, Barnyardgrass” value [19, 27] was 70, the “Barnyardgrass plant response rating” value ([19]; 125 g ai/ha, visual rating) was 0 and the “Barnyardgrass plant response rating” value ([19]; 500 g ai/ha, visual rating) was 0. For the same compound, the “Rice plant response rating” value ([20]; 62 g ai/ha, scale 0 to 100) was 0, the “Rice plant response rating” value [20, 23] was 0 and the “Rice plant response rating” value [20, 24] was 0. The “Plant response rating, Rice” value [20, 25] was 0, the “Ducksalad plant response rating” value [21] was 90 and the “Wheat plant response rating” value [22, 28] was 10. The “Wheat plant response rating” value [22, 29] was 20.
